Laboratory results: article PMC10203105 (Communications Biology, 2023)

T1: AtDHDPR2 (dihydrodipicolinate reductase 2) (Arabidopsis thaliana, UniProt Q8LB01)
T1 construct: gene DAPB2; excludes the 53-amino-acid chloroplast transit peptide; tag cleaved
T1 sequence (Q8LB01 54-349): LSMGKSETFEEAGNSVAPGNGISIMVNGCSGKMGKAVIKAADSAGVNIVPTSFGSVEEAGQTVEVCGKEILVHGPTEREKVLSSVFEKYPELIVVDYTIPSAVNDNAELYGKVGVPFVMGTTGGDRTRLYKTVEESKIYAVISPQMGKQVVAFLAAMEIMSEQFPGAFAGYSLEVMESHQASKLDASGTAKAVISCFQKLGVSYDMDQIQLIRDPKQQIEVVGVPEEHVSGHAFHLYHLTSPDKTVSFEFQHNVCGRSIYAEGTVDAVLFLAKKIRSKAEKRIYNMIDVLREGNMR

T2: AtDHDPR1 (dihydrodipicolinate reductase 1) (Arabidopsis thaliana, UniProt O80574)
T2 construct: gene DAPB1; excludes the first 51 amino acids (chloroplast transit peptide); tag cleaved
T2 sequence (O80574 52-347): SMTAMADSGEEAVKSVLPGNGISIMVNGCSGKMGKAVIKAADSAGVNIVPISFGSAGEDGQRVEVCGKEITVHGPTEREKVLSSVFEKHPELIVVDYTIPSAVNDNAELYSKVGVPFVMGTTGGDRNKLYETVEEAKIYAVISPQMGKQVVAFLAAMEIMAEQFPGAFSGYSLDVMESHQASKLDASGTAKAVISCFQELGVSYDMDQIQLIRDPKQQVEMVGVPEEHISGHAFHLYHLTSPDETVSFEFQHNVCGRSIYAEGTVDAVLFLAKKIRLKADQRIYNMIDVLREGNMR


What was measured:
[1] = target: T1, AtDHDPR2 (dihydrodipicolinate reductase 2); experiment: DHDPS-DHDPR coupled spectrophotometric assay (NADPH oxidation, […] nm); format: biochemical
[2] = target: T2, AtDHDPR1 (dihydrodipicolinate reductase 1); experiment: as above; format: biochemical
purified protein [3] = substrate: NC(=O)C1=CN([C@@H]2O[C@H](COP(=O)(O)OP(=O)(O)OC[C@H]3O[C@@H](n4cnc5c(N)ncnc54)[C@H](OP(=O)(O)O)[C@@H]3O)[C@@H](O)[C@H]2O)C=CC1; experiment: purified protein; settings: varied: cofactor
purified protein [4] = substrate: O=C(O)C1=NC(C(=O)O)CC=C1; experiment: purified protein; settings: NADPH

Molecule	IC50 [1] [µM]	IC50 [2] [µM]	Km (purified protein [3]) [µM]	Km (purified protein [4]) [µM]
O=C(O)c1cccc(C(=O)O)n1 [2,6-PDC, 2,6-pyridinedicarboxylic acid]	470	140	–	–
AtDHDPR1 (dihydrodipicolinate reductase 1) (Arabidopsis thaliana) (protein) SMTAMADSGEEAVKSVLPGNGISIMVNGCSGKMGKAVIKAADSAGVNIVPISFGSAGEDGQRVEVCGKEITVHGPTEREKVLSSVFEKHPELIVVDYTIPSAVNDNAELYSKVGVPFVMGTTGGDRNKLYETVEEAKIYAVISPQMGKQVVAFLAAMEIMAEQFPGAFSGYSLDVMESHQASKLDASGTAKAVISCFQELGVSYDMDQIQLIRDPKQQVEMVGVPEEHISGHAFHLYHLTSPDETVSFEFQHNVCGRSIYAEGTVDAVLFLAKKIRLKADQRIYNMIDVLREGNMR	–	–	16 ± 2.6	37 ± 6.5
